What all share (assay type): tissue-based
The species named for assay [1] is Cavia porcellus. As to the kind of experiment: Agonist activity at beta-adrenergic receptor in guinea pig tracheal tissue assessed as bronchodilator activity. The following applies: Trachea.
For assay [2], the species on record is Cavia porcellus. As to the kind of experiment: Agonist activity at beta-adrenergic receptor in guinea pig right atrial muscle assessed as rate of contraction of spontaneously beating atria. The following applies: Cardiac atrium.
The species named for assay [3] is Cavia porcellus. Nature of the assay: Intrinsic activity at beta-adrenergic receptor in guinea pig right atrial muscle assessed as rate of contraction of spontaneously beating atria relative to isoproterenol. As to conditions: Cardiac atrium.
The species named for assay [4] is Cavia porcellus. As to the kind of experiment: Selectivity ratio of ED25 for beta-adrenergic receptor in guinea pig right atrial muscle to ED50 for beta-adrenergic receptor in guinea pig tracheal tissue. As to conditions: Cardiac atrium.
The species named for assay [5] is Cavia porcellus. Nature of the assay: Agonist activity at beta-adrenergic receptor in guinea pig right atrial muscle assessed as rate of contraction of spontaneously beating atria at 1.7 x 10^-5 M. The following applies: Cardiac atrium.
The species named for assay [6] is Cavia porcellus. As to the kind of experiment: Agonist activity at beta-adrenergic receptor in guinea pig right atrial muscle assessed as rate of contraction of spontaneously beating atria at 9.9 x 10^-5 M. As to conditions: Cardiac atrium.

Data on eight molecules can be found in ChEMBL document CHEMBL3272046, “Adrenerigic agents. 7.1 Synthesis and beta-adrenergic agonist activity of several 2-pyridylethanolamines” (J Med Chem, 1977).

Consider `CC(C)NCC(O)c1ccc(O)cc1` (stereo not given), for which the ED50 in assay [1] came out at 1.1 ×10⁻⁷ M. Besides, the ED25 in assay [2] was determined as 7.7 ×10⁻⁸ M. Also, the Intrinsic activity in assay [3] was found to be 0.8. Further, the Selectivity ratio in assay [4] was 0.7.
Turning to `CC(C)(C)NCC(O)c1ccc(O)cn1` (stereo not given), the ED50 in assay [1] amounted to 3.1 ×10⁻⁷ M. The ED25 in assay [2] is 1.7 ×10⁻⁵ M. Moreover, in assay [5], the Activity was 7%. Further, in assay [4], the Selectivity ratio was over 182.
As for `CC(C)(C)NCC(O)c1ccc(O)c(CO)n1` (stereo not given), in assay [1], the ED50 amounted to 2.8 ×10⁻⁹ M. Besides, the ED25 in assay [2] turned out to be 1.2 ×10⁻⁷ M. In addition, the Intrinsic activity in assay [3] was 0.8. Besides, the Selectivity ratio in assay [4] was determined as 43.
As for `Cc1nc(C(O)CNC(C)(C)C)ccc1O` (stereo not given), the ED50 in assay [1] was 2.8 ×10⁻⁷ M. Further, the ED25 in assay [2] amounted to 1 ×10⁻⁵ M. Further, the Intrinsic activity in assay [3] turned out to be 0.4. Also, in assay [4], the Selectivity ratio was found to be 36.
`CC(C)NCC(O)c1ccc(O)c(O)c1` (stereo not given): in assay [1], the ED50 worked out at 7.1 ×10⁻⁹ M. Besides, in assay [2], the ED25 was 3.4 ×10⁻⁹ M.
As for `CC(C)(C)NCC(O)c1ccc(O)c(CS(C)(=O)=O)n1` (stereo not given), in assay [1], the ED50 turned out to be 2.9 ×10⁻⁸ M. In assay [2], the ED25 came to 9.9 ×10⁻⁵ M. Further, in assay [6], the Activity stood at 13%. Moreover, the Selectivity ratio in assay [4] is over 3410.
`CC(C)(C)NCC(O)c1ccc(O)c(CO)c1` (stereo not given): in assay [1], the ED50 stood at 1.1 ×10⁻⁸ M. Further, the ED25 in assay [2] is 3.1 ×10⁻⁷ M. Moreover, the Intrinsic activity in assay [3] turned out to be 0.7. The Selectivity ratio in assay [4] is 28.
On the same counts, the results for `CC(C)(C)NCC(O)c1ccc(O)c(CS(C)(=O)=O)c1` (stereo not given) are 1.7 ×10⁻⁸ M, 2.8 ×10⁻⁵ M, 0.3 and 1650.
